{"source": "patent US20130203649A1", "about": "“INHIBITORS OF TLR SIGNALING BY TARGETING TIR DOMAIN INTERFACES” (UNIVERSITY OF MARYLAND, BALTIMORE, priority 2012, published 2013)", "key": {"[1]": {"tested_on": "mouse peritoneal macrophages", "conditions": "3-h incubation; data not shown", "procedure": "A total of 5×10^4 mouse peritoneal macrophages was plated into 96-well tissue culture plates, incubated overnight, and treated with peptides for 3 h. After the treatment, cells were incubated with MTT at 0.5 mg/ml (Sigma-Aldrich) for 3 h. Fifty microliters DMSO was added to cells before reading OD at 540 nm."}, "TLR4": {"tested_on": "TLR4", "experiment": "Inhibition of TLR4 signaling in thioglycollate-elicited mouse macrophages (effective concentration, overall inhibitory activity)", "type": "cell-based", "conditions": "for Effective conc.: TLR4 pathway, thioglycollate-elicited mouse macrophages", "procedure": "C57BL/6J mice were obtained from The Jackson Laboratory (Bar Harbor, Me.). Primary peritoneal macrophages were obtained by peritoneal lavage 4 days after intraperitoneal injection (3 ml) of sterile 3% thioglycolate broth. Washed cells were resuspended in RPMI 1640 which contained 2% FBS, 1% penicillin:streptomycin and 2 mM L-glutamine. After plating, cells were incubated overnight at 37° C. and then washed with PBS to remove non-adherent cells. Cells were exposed to peptides 30 min before stimulation with a TLR agonist.\nTIRAP/Mal functions to facilitate MyD88 recruitment to the activated TLR4 and TLR2, presumably through a simultaneous interaction with receptor and MyD88 TIR domains. Therefore, multiple TIR:TIR interaction sites are expected in TIRAP TIR. The decoy peptide approach was used to obtain leads on the functional protein-protein interfaces within TIRAP/Mal, a TLR adapter protein. To this end, eleven TIRAP TIR-derived decoy peptides were designed to be structurally homologous to the TLR4 TIR-derived decoy peptides used previously (1), so that each peptide represents a non-fragmented patch of the TIRAP TIR surface, with the entire domain encompassed by the set of peptides. The TIRAP TIR-derived decoy peptides were synthesized in tandem with the cell-permeating sequence of Antennapedia homeodomain (21) and each peptide was tested for the ability to inhibit TLR4 and TLR2 signaling in primary mouse macrophages. Peptide sequences and the structural regions they represent are shown in reference (30).\nC57BL/6J mice were obtained from The Jackson Laboratory (BarHarbor, Me.). Harvesting, culturing, and stimulation of peritoneal macrophages were described in previous publications (1, 18, 19). Escherichia coli K235 LPS (34) was used at the final concentration of 100 ng/ml. The 2,3-bis(palmitoyloxy)-(2-RS)-propyl-N-palmitoyl-(R)-Cys-Ser-Lys4-OH (P3C) and S[2,3-bis(palmitoyloxy)-(2-RS)-propyl]-[R]-Cys-Ser-Lys4-OH (P2C) (EMC Microcollections, Tubingen, Germany) were used at 500 and 50 ng/ml, respectively. Oligonucleotide (ODN) 1668 and low m.w. polyinosinic-polycytidylic acid [poly(I:C)] in complex with LyoVec were obtained from InvivoGen; these agonists were used at 2.5 μM and 400 ng/ml, respectively."}, "C57BL/6J mice [2]": {"tested_on": "C57BL/6J mice", "experiment": "In vivo efficiency of decoy peptides (Table 1; LPS challenge in mice)", "parameters": "species or system mouse", "procedure": "FIG. 4. Effect of select TRAP decoy peptides on TNF-α and IL-6 in blood following an ip LPS challenge. C57BL/6J mice were injected with TR5, TR6, or TR7 peptide or mock-treated 1 hour before injection of purified E. coli LPS. Peptides and LPS were injected to mice intraperitonealy 10 nmol or 1 μg per gram of animal weight, correspondingly.\n(§1) FIG. 10. […] (A-E) C57BL/6J mice were injected i.p. with purified Escherichia coli K235 LPS (1 μg/g) or PBS. Peptides (10 nmol/g of animal weight) were injected i.p. (A, B, D, E) or i.v. (C) 1 h before (A, B, and C) or 30 min after (D, E) i.p. injection of LPS. Data in panels A and D show plasma IL-6 and TNF-α levels measured 2 h after LPS challenge. Peptide TM8/9 was used as a non-inhibitory control peptide. Data represent the means±s.e.m. for 6-12 blood samples obtained in at least three independent experiments. *p<0.01. (F, G) C57BL/6J mice were challenged i.p. with a lethal LPS dose (17.5 μg/g). Peptides (10 nmol/g) were injected i.p. 1 h before LPS challenge. […] The statistical significance of changes in mortality and survival time was determined by the Mantel Cox log-rank test using GraphPad Prism software (Version 5.04). *p<0.01.\n(§2) Eight-week-old C57BL/6J mice were injected with 1 or 17.5 μg/g animal weight of E. coli K235 LPS i.p. Peptides reconstituted in PBS were administered i.p. or i.v. Control groups received equivalent volume of solvent (PBS). The blood samples were collected 1, 2, 4, and 8 h, or 2, 8, and 24 h after LPS challenge. The plasma samples were obtained and kept frozen until TNF-α and IL-6 were measured by ELISA. Survival of animals was monitored every 6-16 h after LPS challenge. All animal experiments were carried out with institutional approval."}, "C57BL/6J mice [3]": {"tested_on": "C57BL/6J mice", "experiment": "Survival after lethal LPS challenge in C57BL/6J mice", "type": "in vivo, mouse", "conditions": "LPS 17.5 μg/g i.p.", "procedure": "as §1, §2\nWe next studied whether inhibitory peptides protect mice from a lethal LPS challenge. TR6, a previously described inhibitory peptide derived from the third helical region of TRAP (30), was also included in this study as an additional control. C57BL/6J mice were injected i.p. with 17.5 μg/g LPS. This dose induced 100% mortality in the control group (FIG. 10F). […] The peptide-treated survivors appeared active and healthy at the time the experiments were terminated, 7 d after injection of LPS."}, "C57BL/6J mice [4]": {"tested_on": "C57BL/6J mice", "experiment": "Plasma TNF-α and IL-6 after sublethal LPS challenge in C57BL/6J mice", "type": "in vivo, mouse", "procedure": "as §1, §2\nWe next studied whether peptides identified as inhibitory in in vitro tests are effective in vivo. C57BL/6J mice were challenged i.p. with a sublethal LPS dose (1 μg/g animal weight), and plasma TNF-α and IL-6 levels were monitored for 8 h after the challenge. In the first series of experiments, we injected 10 nmol/g TM4 or TM6 i.p. 1 h before LPS challenge. The 10 nmol/g dose corresponds to 38, 41, and 32 mg/kg TM4, TM6, and TM4-ΔC, respectively."}, "MAPK (ERK, JNK, p38)": {"tested_on": "MAPK (ERK, JNK, p38)", "experiment": "MAPK activation by peptide alone, macrophages without TLR agonist", "type": "cell-based, mouse", "conditions": "peptide alone; data not shown", "procedure": "Neither TIRAP peptide activated ERK in cells incubated without a TLR agonist (not shown). […] The mechanism of this differential MAPK activation by select peptides, although interesting, is not understood at this time. Peptides TR9 and TR11 inhibited both ERK and JNK MAPKs (FIG. 1D). Peptide-induced inhibition of ERK persisted over a long period of time.\nWe next examined whether TRAM peptides inhibit the TLR4-mediated p38, ERK, and JNK MAPK activation. Murine macrophages pretreated with peptides for 30 min were challenged with LPS. Cell lysates were collected 30 min post-stimulation and analyzed for MAPK phosphorylation by Western analysis. Consistent with peptide effects on steady-state mRNA, both TM4 and TM6 inhibited activation of all three MAPKs (FIG. 5C). The inhibition of MAPKs by TM4 or TM6 was long lasting; it persisted for at least 1 h after LPS stimulation (data not shown). To characterize further the effects of TRAM peptides on MAPKs, murine macrophages were treated with TRAM peptides, but not challenged by LPS."}}, "note": "Several values for one entry are separate records, joined by “and”; a condition that tells them apart may be missing. Equal entries are not always repeated. Entries after “also recorded” stand apart in the source; their conditions may differ. No end group written: not given here.", "data": [{"substance": "RQIKIWFQNRRMKWKKENFLRDTWCNFQFY [TM6]", "values": [{"measurement": "Cell viability (MTT)", "setting": "[1]", "value": "Neither inhibitory peptide affected cell viability in a significant way"}]}, {"substance": "RQIKIWFQNRRMKWKKIVFAEMPCG [TM4-ΔC]", "values": [{"measurement": "Effective conc.", "setting": "TLR4", "value": 10, "unit": "µM"}, {"measurement": "Inhibitory activity of modified TM4 peptides on TLR4-driven MAPK activation and cytokine mRNA (FIG. 8)", "setting": "TLR4; relative ranking among TM4 variants", "value": "close to that of TM4"}, {"measurement": "In vivo efficiency", "setting": "C57BL/6J mice [2]", "value": "yes, i.p."}, {"measurement": "Survival after lethal LPS challenge", "setting": "C57BL/6J mice [3]; peptide 10 nmol/g i.p. 1 h before", "value": "rescued all animals and 10 of 10 and protect"}, {"measurement": "Survival after lethal LPS challenge, therapeutic administration", "setting": "C57BL/6J mice [3]; peptide i.p. 3 h after LPS", "value": "Five of seven"}, {"measurement": "Plasma TNF-α and IL-6", "setting": "C57BL/6J mice [4]; 10 nmol/g i.p. 30 min after LPS, 2 h after LPS or thereafter", "value": "markedly diminished"}, {"measurement": "Circulating TNF-α and IL-6", "setting": "C57BL/6J mice [4]; 10 nmol/g i.p. 30 min after LPS, measured 1 h after LPS", "value": "did not affect"}, {"measurement": "Circulating IL-6 and TNF-α levels", "setting": "C57BL/6J mice [4]; 10 nmol/g i.v., LPS i.p., 8-h observation", "value": "significantly lowered"}, {"measurement": "Efficiency with respect to circulating IL-6 at 4- or 8-h time points", "setting": "C57BL/6J mice [4]; dose increased to 25 nmol/g", "value": "did not augment"}, {"measurement": "LPS-induced systemic cytokine response in vivo", "setting": "C57BL/6J mice [4]; sublethal LPS 1 μg/g, peptide 10 nmol/g", "value": "strongly suppress; also recorded: effectively suppress"}]}, {"substance": "TM3: TRAM decoy peptide: Antennapedia sequence at N terminus of QNDFGIRPG (RQIKIWFQNRRMKWKKQNDFGIRPG)", "values": [{"measurement": "p38 and ERK MAPK activation without LPS stimulation", "setting": "MAPK (ERK, JNK, p38)", "value": "weakly activated"}]}, {"substance": "RQIKIWFQNRRMKWKKIVFAEMPCGRLHLQ [TM4]", "values": [{"measurement": "Cell viability (MTT)", "setting": "[1]", "value": "Neither inhibitory peptide affected cell viability in a significant way"}]}, {"substance": "RQIKIWFQNRRMKWKKCLQDAIDHS [TF5-ΔC]", "values": [{"measurement": "Effective conc.", "setting": "TLR4", "value": 20, "unit": "µM"}, {"measurement": "In vivo efficiency", "setting": "C57BL/6J mice [2]", "value": "Yes, i.p."}]}]}
